Data reported in patent publication US8791139B2, “Anthranilic diamide derivatives” (Bayer Cropscience AG, priority 2010, dated 2014).

Assay: logP by HPLC on reversed-phase columns (C18), EEC Directive 79/831 Annex V.A8
Format: physicochemical
Settings: HPLC reversed-phase C18, acidic range pH 2.7; Preparation Examples (intermediates)
Method: The logP values reported in the table above and in the Preparation Examples were determined in accordance with EEC Directive 79/831 Annex V.A8 by HPLC (High Performance Liquid Chromatography) on reversed-phase columns (C18), with the following methods:
The LC-MS determination in the acidic range is carried out at pH 2.7 using the mobile phases 0.1% aqueous formic acid and acetonitrile (contains 0.1% formic acid), linear gradient from 10% acetonitrile to 95% acetonitrile
Calibration was carried out using unbranched alkan-2-ones (having from 3 to 16 carbon atoms) with known logP values (the logP values were determined by the retention times using linear interpolation between two successive alkanones).

Point of comparison: `O=C(Nc1ccc(C(F)(F)F)cc1)c1cc(C(=O)O)n(-c2ncccc2Cl)n1` [Example No. III-8], logP 2.67. Against it:
- COC(=O)c1cc(C#Cc2ccc(OC(F)(F)F)cc2)nn1-c1ncccc1Cl [Example No. VII, methyl 1-(3-chloropyridin-2-yl)-3-{[4-(trifluoromethoxy)phenyl]ethinyl}-1H-pyrazole-5-carboxylate] — higher, 4.46

Same assay, conditions: reversed-phase HPLC column (C18), pH 2.7, HPLC reversed-phase C18, acidic range pH 2.7; Preparation Examples (intermediates); read-out: logP

Point of comparison: `O=C(O)c1cc(Nc2ccc(C(F)(F)F)cn2)nn1-c1ncccc1Cl` [Example No. III-10, 1-(3-Chloropyridin-2-yl)-3-{[5-(trifluoromethyl)pyridin-2-yl]amino}-1H-pyrazole-5-carboxylic acid], chromatographic logP 2.79. Against it:
- O=C(c1ccc(C(F)(F)F)nc1)c1cc(C(=O)O)n(-c2ncccc2Cl)n1 [Example No. III-6, 1-(3-chloropyridin-2-yl)-3-{[6-(trifluoromethyl)pyridin-3-yl]carbonyl}-1H-pyrazole-5-carboxylic acid] — lower, 2.33
- CCOC(=O)c1cc(C(=O)Cn2nnc(C(F)(F)F)n2)nn1-c1ncccc1Cl [Example No. IX, ethyl 1-(3-chloropyridin-2-yl)-3-{[5-(trifluoromethyl)-2H-tetrazol-2-yl]acetyl}-1H-pyrazole-5-carboxylate] — higher, 3.5
- COC(=O)c1cc(C(=O)Nc2ccc(C(F)(F)F)cc2)nn1-c1ncccc1Cl [Example No. IX-e, methyl 1-(3-chloropyridin-2-yl)-3-{[4-(trifluoromethyl)phenyl]carbamoyl}-1H-pyrazole-5-carboxylate] — higher, 3.54
- COC(=O)c1cc(CN(C)S(=O)(=O)Cc2cc(C(F)(F)F)cc(C(F)(F)F)c2)nn1-c1ncccc1Cl [Example No. V, methyl 3-{[{[3,5-bis(trifluoromethyl)benzyl]sulphonyl}(methyl)amino]methyl}-1-(3-chloropyridin-2-yl)-1H-pyrazole-5-carboxylate] — higher, 3.83
- CCOC(=O)c1cc(C(C)=O)nn1-c1ncccc1Cl [Example No. VII-a, ethyl 3-acetyl-1-(3-chloropyridin-2-yl)-1H-pyrazole-5-carboxylate] — lower, 2.31
- CCOC(=O)c1cc(N2CCN(c3cc(C(F)(F)F)cc(C(F)(F)F)c3)C2=O)nn1-c1ncccc1Cl [Example No. VII-b, ethyl 3-{3-[3,5-bis(trifluoromethyl)phenyl]-2-oxoimidazolidin-1-yl}-1-(3-chloropyridin-2-yl)-1H-pyrazole-5-carboxylate] — higher, 4.82
- COC(=O)c1cc(Cc2ccc(C(F)(F)F)nc2)nn1-c1ncccc1Cl [Example No. VII-c, methyl 1-(3-chloropyridin-2-yl)-3-{[6-(trifluoromethyl)pyridin-3-yl]methyl}-1H-pyrazole-5-carboxylate] — within 0.2 log units, 2.86
- COC(=O)c1cc(C=O)nn1-c1ncccc1Cl [Example No. VII-e, methyl 1-(3-chloropyridin-2-yl)-3-formyl-1H-pyrazole-5-carboxylate] — lower, 1.82
- CCOC(=O)c1cc(C(=O)C(=O)c2ccc(Cl)cc2Cl)nn1-c1ncccc1Cl [Example No. VIII, ethyl 1-(3-chloropyridin-2-yl)-3-[(2,4-dichlorophenyl)(oxo)acetyl]-1H-pyrazole-5-carboxylate] — higher, 4.29
- CCOC(=O)c1cc(C(=O)CBr)nn1-c1ncccc1Cl [Example No. VIII-a, ethyl 3-(bromoacetyl)-1-(3-chloropyridin-2-yl)-1H-pyrazole-5-carboxylate] — within 0.2 log units, 2.87
- COC(=O)c1cc(C(=O)c2ccc(C(F)(F)F)nc2)nn1-c1ncccc1Cl [Example No. VIII-c, methyl 1-(3-chloropyridin-2-yl)-3-{[6-(trifluoromethyl)pyridin-3-yl]carbonyl}-1H-pyrazole-5-carboxylate] — higher, 3.33
- COC(=O)c1cc(C(=O)O)nn1-c1ncccc1Cl [Example No. VIII-e, 1-(3-chloropyridin-2-yl)-5-(methoxycarbonyl)-1H-pyrazole-3-carboxylic acid] — lower, 1.38
